Test results as given in ChEMBL document CHEMBL6109152, “Harnessing the SPOP E3 Ubiquitin Ligase via a Bridged Proteolysis Targeting Chimera (PROTAC) Strategy for Targeted Protein Degradation” (J Med Chem, 2025).
Active and inactive are the calls of the source. No cut-off for these calls is given here.

How the values were obtained:
[1] = target: T1, Speckle-type POZ protein-Bromodomain-containing protein 4 (Homo sapiens, UniProt O60885+O43791); assay: PROTAC activity at SPOP/BRD4-S in human HT-29 cells assessed as induction of BRD4 short isoform degradation at 5 uM measured after 16 to 72 hrs by Western blotting analysis; type: cell-based; conditions: time 16-72 hrs
T1 sequence (O43791 whole entry, looked up, other chains not shown, canonical isoform): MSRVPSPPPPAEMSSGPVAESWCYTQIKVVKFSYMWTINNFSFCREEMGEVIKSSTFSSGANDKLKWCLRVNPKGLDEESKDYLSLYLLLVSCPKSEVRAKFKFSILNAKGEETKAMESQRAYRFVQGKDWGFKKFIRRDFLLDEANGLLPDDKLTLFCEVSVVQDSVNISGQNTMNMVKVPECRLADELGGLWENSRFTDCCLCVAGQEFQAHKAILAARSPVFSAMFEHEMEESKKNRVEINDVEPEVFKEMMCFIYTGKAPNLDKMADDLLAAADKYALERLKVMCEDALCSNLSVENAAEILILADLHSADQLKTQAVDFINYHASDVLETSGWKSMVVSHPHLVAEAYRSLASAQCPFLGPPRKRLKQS

[2] = target: T1, Speckle-type POZ protein-Bromodomain-containing protein 4; assay: PROTAC activity at SPOP/BRD4-S in human HT-29 cells assessed as induction of BRD4 short isoform degradation at 5 uM by Western blotting analysis; type: cell-based; conditions: time 2-72 hrs
[3] = tested on: HT-29; assay: Effect on BRD3 mRNA level in human HT-29 cells at 1 to 10 uM incubated for 24 hrs by RT-qPCR analysis; type: functional, cell-based; conditions: dose 1-10 µM
[4] = target: T1, Speckle-type POZ protein-Bromodomain-containing protein 4; assay: PROTAC activity at SPOP/BRD4-S in human HT-29 cells assessed as induction of BRD4 short isoform degradation by measuring fold change at 0.625 uM incubated for 24 hrs by Western blotting analysis (reference value: 1.00); type: cell-based
[5] = target: T1, Speckle-type POZ protein-Bromodomain-containing protein 4; assay: PROTAC activity at SPOP/BRD4-S in human HT-29 cells assessed as induction of BRD4 short isoform degradation by measuring fold change at 0.156 uM incubated for 24 hrs by Western blotting analysis (reference value: 1.00); type: cell-based
[6] = target: T2, Speckle-type POZ protein-Bromodomain-containing protein 2 (Homo sapiens) (UniProt P25440+O43791); assay: PROTAC activity at SPOP/BRD2 in human HT-29 cells assessed as induction of BRD2 degradation by measuring fold change at 0.313 uM incubated for 24 hrs by Western blot analysis (reference value: 1.00); type: cell-based
T2 sequence (O43791 whole entry, looked up, canonical isoform): as the sequence (O43791 whole entry, looked up, other chains not shown, canonical isoform) above
T2 sequence (P25440 whole entry, looked up, canonical isoform): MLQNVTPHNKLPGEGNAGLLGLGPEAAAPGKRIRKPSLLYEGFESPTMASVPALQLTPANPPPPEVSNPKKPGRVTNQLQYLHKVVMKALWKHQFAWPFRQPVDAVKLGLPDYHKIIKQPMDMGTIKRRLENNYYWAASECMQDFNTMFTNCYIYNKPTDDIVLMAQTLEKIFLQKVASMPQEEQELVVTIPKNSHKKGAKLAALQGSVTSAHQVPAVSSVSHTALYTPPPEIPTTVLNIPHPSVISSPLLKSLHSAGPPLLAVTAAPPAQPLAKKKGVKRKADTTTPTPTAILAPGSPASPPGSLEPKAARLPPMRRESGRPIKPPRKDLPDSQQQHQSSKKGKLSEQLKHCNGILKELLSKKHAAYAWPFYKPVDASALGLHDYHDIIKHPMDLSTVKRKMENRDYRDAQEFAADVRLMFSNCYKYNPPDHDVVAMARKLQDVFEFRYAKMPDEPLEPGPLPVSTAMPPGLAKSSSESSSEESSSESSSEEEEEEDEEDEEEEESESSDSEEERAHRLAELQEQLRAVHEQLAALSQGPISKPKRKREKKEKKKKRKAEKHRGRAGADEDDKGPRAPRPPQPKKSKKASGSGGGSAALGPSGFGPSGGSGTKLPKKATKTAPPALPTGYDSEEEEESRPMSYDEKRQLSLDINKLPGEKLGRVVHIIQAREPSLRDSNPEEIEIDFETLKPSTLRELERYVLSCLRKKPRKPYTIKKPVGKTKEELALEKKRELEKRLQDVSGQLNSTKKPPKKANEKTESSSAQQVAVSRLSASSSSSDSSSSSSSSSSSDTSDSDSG

[7] = target: T1, Speckle-type POZ protein-Bromodomain-containing protein 4; assay: PROTAC activity at SPOP/BRD4-S in human HT-29 cells assessed as induction of BRD4 short isoform degradation at 5 uM preincubated with MLN4924 for 2 hrs followed by compound addition and measured after 24 hrs by Western blot analysis; type: cell-based
[8] = target: T3, Bromodomain-containing protein 4 (Homo sapiens, UniProt O60885); assay: Inhibition of BRD4 in human HT-29 cells assessed as decrease in c-MYC protein level by measuring fold change at 0.313 uM incubated for 24 hrs by Western blot analysis (reference value: 1.00); type: cell-based
[9] = target: T4, Speckle-type POZ protein-Bromodomain-containing protein 3 (Homo sapiens) (UniProt Q15059+O43791); assay: PROTAC activity at SPOP/BRD3 in human HT-29 cells assessed as induction of BRD3 degradation by measuring fold change at 0.625 uM incubated for 24 hrs by Western blot analysis (reference value: 1.00); type: cell-based
T4 sequence (O43791 whole entry, looked up, canonical isoform): as the sequence (O43791 whole entry, looked up, other chains not shown, canonical isoform) above
T4 sequence (Q15059 whole entry, looked up, canonical isoform): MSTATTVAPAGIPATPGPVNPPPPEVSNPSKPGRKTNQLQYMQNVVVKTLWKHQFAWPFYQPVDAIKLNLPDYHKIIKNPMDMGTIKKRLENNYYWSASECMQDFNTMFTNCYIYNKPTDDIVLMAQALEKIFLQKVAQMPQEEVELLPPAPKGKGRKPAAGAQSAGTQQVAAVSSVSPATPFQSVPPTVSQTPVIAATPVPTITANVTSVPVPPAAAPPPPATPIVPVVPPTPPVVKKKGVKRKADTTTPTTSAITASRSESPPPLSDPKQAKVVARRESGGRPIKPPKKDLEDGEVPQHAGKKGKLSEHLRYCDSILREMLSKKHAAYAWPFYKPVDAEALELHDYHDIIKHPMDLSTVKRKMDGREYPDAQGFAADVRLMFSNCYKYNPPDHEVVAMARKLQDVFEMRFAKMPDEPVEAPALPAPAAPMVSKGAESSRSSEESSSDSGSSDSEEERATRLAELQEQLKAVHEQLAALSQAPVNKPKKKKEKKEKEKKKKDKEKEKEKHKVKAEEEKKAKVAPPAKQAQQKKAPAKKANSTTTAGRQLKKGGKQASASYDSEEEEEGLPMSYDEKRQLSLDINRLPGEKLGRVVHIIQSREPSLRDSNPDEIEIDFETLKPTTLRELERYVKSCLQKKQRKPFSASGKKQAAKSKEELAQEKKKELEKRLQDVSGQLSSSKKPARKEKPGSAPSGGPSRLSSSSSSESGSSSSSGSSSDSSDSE

[10] = target: T1, Speckle-type POZ protein-Bromodomain-containing protein 4; assay: PROTAC activity at SPOP/BRD4-S in human HT-29 cells assessed as induction of BRD4 short isoform degradation incubated for 24 hrs by Western blotting analysis; type: cell-based
[11] = target: T1, Speckle-type POZ protein-Bromodomain-containing protein 4; assay: PROTAC activity at SPOP/BRD4-L in human HT-29 cells assessed as induction of BRD4 long isoform degradation by measuring fold change at 10 uM incubated for 24 hrs by Western blotting analysis (reference value: 1.00); type: cell-based
[12] = target: T4, Speckle-type POZ protein-Bromodomain-containing protein 3 (Homo sapiens); assay: PROTAC activity at SPOP/BRD3 in human HT-29 cells assessed as induction of BRD3 degradation by measuring fold change at 2.5 uM incubated for 24 hrs by Western blot analysis (reference value: 1.00); type: cell-based
[13] = target: T3, Bromodomain-containing protein 4; assay: Inhibition of BRD4 in human HT-29 cells assessed as decrease in c-MYC protein level by measuring fold change at 0.625 uM incubated for 24 hrs by Western blot analysis (reference value: 1.00); type: cell-based
[14] = target: T2, Speckle-type POZ protein-Bromodomain-containing protein 2 (Homo sapiens); assay: PROTAC activity at SPOP/BRD2 in human HT-29 cells assessed as induction of BRD2 degradation by measuring fold change at 2.5 uM incubated for 24 hrs by Western blot analysis (reference value: 1.00); type: cell-based
[15] = target: T4, Speckle-type POZ protein-Bromodomain-containing protein 3 (Homo sapiens); assay: PROTAC activity at SPOP/BRD3 in human HT-29 cells assessed as induction of BRD3 degradation by measuring fold change at 0.313 uM incubated for 24 hrs by Western blot analysis (reference value: 1.00); type: cell-based
[16] = target: T2, Speckle-type POZ protein-Bromodomain-containing protein 2 (Homo sapiens); assay: PROTAC activity at SPOP/BRD2 in human HT-29 cells assessed as induction of BRD2 degradation at 5 uM measured after >=48 hrs by Western blot analysis; type: cell-based
[17] = tested on: HT-29; assay: Effect on BRD4 short isoform mRNA level in human HT-29 cells at 1 to 10 uM incubated for 24 hrs by RT-qPCR analysis; type: functional, cell-based; conditions: dose 1-10 µM
[18] = target: T1, Speckle-type POZ protein-Bromodomain-containing protein 4; assay: PROTAC activity at SPOP/BRD4-S in human HT-29 cells assessed as induction of BRD4 short isoform degradation by measuring fold change at 1.25 uM incubated for 24 hrs by Western blotting analysis (reference value: 1.00); type: cell-based
[19] = target: T2, Speckle-type POZ protein-Bromodomain-containing protein 2 (Homo sapiens); assay: PROTAC activity at SPOP/BRD2 in human HT-29 cells assessed as induction of BRD2 degradation by measuring fold change at 0.625 uM incubated for 24 hrs by Western blot analysis (reference value: 1.00); type: cell-based
[20] = target: T2, Speckle-type POZ protein-Bromodomain-containing protein 2 (Homo sapiens); assay: PROTAC activity at SPOP/BRD2 in human HT-29 cells assessed as induction of BRD2 degradation by measuring fold change at 0.156 uM incubated for 24 hrs by Western blot analysis (reference value: 1.00); type: cell-based
[21] = target: T1, Speckle-type POZ protein-Bromodomain-containing protein 4; assay: PROTAC activity at SPOP/BRD4-L in human HT-29 cells assessed as induction of BRD4 long isoform degradation by measuring fold change at 1.25 uM incubated for 24 hrs by Western blotting analysis (reference value: 1.00); type: cell-based

- Activity [1]: Active
- Activity [2]: Time-dependent-effect
- fold change (FC) [4]: 0.9
- fold change (FC) [5]: 1
- fold change (FC) [6]: 1.2
- Activity [7]: inactive
- fold change (FC) [8]: 1
- fold change (FC) [9]: 0.9
- Activity [10]: Dose-dependent-effect
- DC50 [10]: 6.2 µM
- fold change (FC) [11]: 0.6
- fold change (FC) [12]: 0.7
- fold change (FC) [13]: 0.7
- fold change (FC) [14]: 1
- fold change (FC) [15]: 0.9
- Activity [16]: Active
- fold change (FC) [18]: 0.8
- fold change (FC) [19]: 1.1
- fold change (FC) [20]: 1.3
- fold change (FC) [21]: 1.2
SMILES: COc1cc2c(NC3CCN(CCCC(=O)NCCCCCCCCCCNC(=O)C[C@@H]4N=C(c5ccc(Cl)cc5)c5c(sc(C)c5C)-n5c(C)nnc54)CC3)cc(N3CCOCC3)nc2cc1OCCCN1CCCC1
- Activity [3]: inactive
- Activity [17]: inactive
